Entries after “also recorded” stand apart in the source; their conditions may differ.
Experiments:
[1] = system: APPswe/PS1ΔE9 mice; test: Morris water maze, APPswe/PS1ΔE9 mice, Animal Model Experiment 1; conditions: for swim speed as cause of the observed effects: FIG. 15d, 16d, 17d; for escape latency, visible platform training / escape latency, hidden platform training: oral administration from 4 months of age; for escape latency, visible platform training: transgenic mice; for escape latency, hidden platform training / percent time spent in the platform quadrant, probe trial: versus control transgenic mice; for percent time spent in the platform quadrant, probe trial: 24 h after the final hidden platform training
[2] = stated as a property, no test described; cited from earlier work
[3] = system: APPswe/PS1ΔE9 mice; test: Cerebral amyloid plaque formation in APPswe/PS1ΔE9 mice after chronic administration; conditions: daily for 30 days, 3 nM Iso i.c.v., 2 mg/kg Cle oral, 1 mg/kg ICI 118,551 oral
[4] = system: APPswe/PS1ΔE9 double-transgenic mice; test: Morris water maze, APPswe/PS1ΔE9 mice, Animal Model Experiment 2; format: in vivo, mouse; conditions: for escape latency, visible platform / escape latency, hidden platform: oral daily for 30 days, 2 mg/kg clenbuterol or 1 mg/kg ICI 118,551; for escape latency, hidden platform: versus Sal mice
Method: In further animal experiments, four-month old APPswe/PS1ΔE9 double-transgenic mice were orally administered with saline (Sal), 2 mg/kg clenbuterol (Cle, a β2AR-selective agonist) or 1 mg/kg ICI 118,551 (ICI, a β2AR-selective antagonist) daily for 30 days.
The water maze was a circular 1.2 m pool filled with water at 24-25° C. and made opaque by the addition of milk powder. The pool was placed amid fixed spatial cues consisting of boldly patterned curtains and shelves containing distinct objects. […] Mice first underwent visible platform training for 2 consecutive days (eight trials per day), swimming to a raised circular platform (10 cm of diameter) marked with a pole. Visible platform days were split into two training blocks of four trials for statistical analysis. During visible platform training, both the platform location (NE, SE, SW, or NW) and start position (N, […], S, or W) were varied pseudo-randomly in each trial.
Hidden platform raining was conducted over 6 consecutive days (four trials per day), wherein mice were allowed to search for a platform submerged 1.5 cm beneath the surface of the water. Mice failing to reach the platform within 60 sec were led to the platform. During hidden-platform trials, the location of the platform remained constant, and mice entered the pool in one of the four pseudo-randomly selected locations (N, E, S, or W). After each hidden platform trial, mice remained on the platform for 30 sec and were removed from the platform and returned to their home cage.
Twenty-four hours after the final hidden platform training, a probe trial was conducted in which the platform was removed from the pool and mice were allowed to search for the platform for 60 sec. All trials were monitored by a camera mounted directly above the pool and were recorded and analyzed using a computerized tracking system.

[5] = system: γ-secretase; test: γ-Secretase fluorogenic substrate assay, C6 glioma membrane fractions; format: cell-based
[6] = system: Aβ40 and Aβ42; test: Aβ levels in rat hippocampus after acute injection (rat Aβ ELISA); conditions: rats, 2 μg norepinephrine i.c.v. or 0.5 mg/kg clenbuterol i.p.
[7] = system: γ-secretase; test: γ-Secretase activity in rat hippocampus after acute injection (fluorogenic substrate assay); conditions: rats, 2 μg norepinephrine i.c.v. or 0.5 mg/kg clenbuterol i.p.
[8] = target: T1, β2AR (Homo sapiens, UniProt P07550); test: Secreted Aβ ELISA in HEK293 cells co-expressing β2AR and APPswe; format: cell-based; conditions: 10 μM Iso 1 h with 10 μM Pro, or after 6-h pre-treatment with 1 μM L685,458
T1 construct: expressed in transfected cells; host or cells: HEK293

[9] = system: γ-secretase; test: γ-Secretase fluorogenic substrate assay, acute hippocampal slices; format: cell-based, rat; conditions: 1 μM DADLE, 30 minutes
[10] = system: γ-secretase; test: γ-Secretase fluorogenic substrate assay, SH-SY5Y neuroblastoma; format: cell-based
Method: The enhancement of γ-secretase activity upon activation of receptors is not limited to β-AR. Similar results were also observed when endogenous DOR in SH-SY5Y neuroblastoma (FIG. 7a) or in primary hippocampal cultures (FIG. 7b) were stimulated.
Again, the involvement of LEL in the enhancement of the γ-secretase activity is not limited to β-AR. […] The experiment shown in FIG. 12 was performed with SH-SY5Y neuroblastoma. […] The fractions were subjected to […] (Aβ) assay and fluorogenic substrate assay.

[11] = system: γ-secretase; test: γ-Secretase fluorogenic substrate assay, HEK293 cells treated with transferrin; format: cell-based; conditions: transferrin-induced endocytosis
Method: However, it is till not clear whether clathrin-mediated endocytosis by itself is […] to induce the enhancement of γ-secretase activity. To answer this question, HEK293 cells were treated with transferrin, which can induce constitutive clathrin-dependent endocytosis of transferrin receptor.

[12] = target: δ-opioid receptor (DOR) (Homo sapiens, UniProt P41143); conditions: C99-transfected HEK293 cells; DADLE plus NALT
[13] = system: endogenous β-ARs; test: Secreted Aβ ELISA in primary hippocampal cultures expressing C99, β-AR stimulation; format: cell-based, rat; conditions: 10 μM Iso, 1 h
[14] = system: γ-secretase; test: Immunofluorescence microscopy of acute hippocampal slices, localization of γ-secretase in LEL; conditions: Iso treatment
[15] = system: γ-secretase; conditions: wild-type versus presenilin-deficient MEFs; 10 μM Iso, 30 min

Chain of δ-opioid receptor (DOR) (P41143 whole entry): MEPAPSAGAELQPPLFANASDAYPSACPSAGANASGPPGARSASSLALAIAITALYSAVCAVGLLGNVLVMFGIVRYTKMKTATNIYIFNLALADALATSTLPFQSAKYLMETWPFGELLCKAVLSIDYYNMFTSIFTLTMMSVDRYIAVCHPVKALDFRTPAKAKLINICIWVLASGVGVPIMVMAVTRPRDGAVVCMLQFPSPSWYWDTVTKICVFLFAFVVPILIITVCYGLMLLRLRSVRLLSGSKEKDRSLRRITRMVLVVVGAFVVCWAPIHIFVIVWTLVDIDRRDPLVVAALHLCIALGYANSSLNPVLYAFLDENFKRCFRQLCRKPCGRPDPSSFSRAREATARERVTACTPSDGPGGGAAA
T1 sequence (P07550 whole entry): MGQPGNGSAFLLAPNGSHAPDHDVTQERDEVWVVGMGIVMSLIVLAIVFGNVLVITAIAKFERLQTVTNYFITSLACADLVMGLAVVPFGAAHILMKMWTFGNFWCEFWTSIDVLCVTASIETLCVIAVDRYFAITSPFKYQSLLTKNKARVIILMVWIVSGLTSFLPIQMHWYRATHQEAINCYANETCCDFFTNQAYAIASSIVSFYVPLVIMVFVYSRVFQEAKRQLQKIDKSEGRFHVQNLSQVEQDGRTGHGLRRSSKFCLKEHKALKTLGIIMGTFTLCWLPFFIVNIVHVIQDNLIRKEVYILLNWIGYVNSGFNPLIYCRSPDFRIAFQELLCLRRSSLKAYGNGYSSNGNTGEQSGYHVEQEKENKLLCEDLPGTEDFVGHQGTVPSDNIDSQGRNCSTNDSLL

Compound: COc1ccc(OC)c(C(O)C(C)NC(C)(C)C)c1 (centres unmarked) [Butoxamine]
- swim speed as cause of the observed effects [1]: not due to difference in swim speeds
- escape latency, visible platform training [1]: no drug effect was observed
- escape latency, hidden platform training [1]: significantly ameliorated cognitive impairment
- crossing of the blood-brain barrier (BBB) [2]: can cross the BBB

Compound: Cc1ccc(OCC(O)C(C)NC(C)C)c2c1CCC2 (centres unmarked) [ICI 118,551]
- cerebral amyloid plaques [3]: significantly reduced the amounts of amyloid plaques; also recorded: effective in suppressing the formation of β-amyloid plaques
- percentage time spent on the platform, probe trial ([4]; 24-h after final hidden platform training, 1 mg/kg ICI 118,551 oral daily for 30 days, listed as ICI): spent greater proportion of time in the platform; also recorded: spent greater proportion of time in the target quadrant
- escape latency, visible platform [4]: small, but statistically insignificant, effects of drug treatments; also recorded: No significant effect
- escape latency, hidden platform [4]: displayed a faster learning curve than the Sal mice; also recorded: displayed a faster learning curve than the Sal ones
- swim speed as cause of the observed effects [1]: did not result from changes in swim speeds
- escape latency, visible platform training [1]: no drug effect was observed
- escape latency, hidden platform training [1]: significantly ameliorated cognitive impairment
- crossing of the blood-brain barrier (BBB) [2]: can cross the BBB

Compound: CC(C)NCC(O)COc1ccc(CCOCC2CC2)cc1 (centres unmarked) [Betaxolol]
- percent time spent in the platform quadrant, probe trial [1]: showed less significant effect; also recorded: showed no effect
- escape latency, visible platform training [1]: no drug effect was observed
- escape latency, hidden platform training [1]: showed some effect; also recorded: showed some extent of amelioration, but the effect was not statistically significant
- crossing of the blood-brain barrier (BBB) [2]: can cross the BBB

Compound: cholera toxin
- γ-secretase activity, compound alone [5]: did not result in enhanced γ-secretase activity

Compound: CC(C)(C)NCC(O)c1cc(Cl)c(N)c(Cl)c1 (centres unmarked) [clenbuterol]
- cerebral amyloid plaques [3]: accelerated amyloid plaque formation
- cerebral amyloid plaques ([3]; listed as Cle): increased cerebral amyloid plaques
- Aβ levels (Aβ40 and Aβ42) in hippocampus [6]: significantly enhanced; also recorded: increased secreted Aβ 40 and Aβ 42 levels
- escape latency, visible platform [4]: small, but statistically insignificant, effects of drug treatments; also recorded: No significant effect
- escape latency, hidden platform [4]: seemed to have no effect
- γ-secretase activity in hippocampus [7]: significantly enhanced; also recorded: enhanced γ-secretase activity

Compound: CC(C)C[C@H](NC(=O)[C@H](Cc1ccccc1)C[C@@H](O)[C@H](Cc1ccccc1)NC(=O)OC(C)(C)C)C(=O)N[C@@H](Cc1ccccc1)C(N)=O [L685,458]
- effect on Iso-induced increase in secreted Aβ [8]: abolished the increased production of the secreted Aβ

Compound: NC[C@H](O)c1ccc(O)c(O)c1 [norepinephrine]
- Aβ levels (Aβ40 and Aβ42) in hippocampus [6]: significantly enhanced; also recorded: increased secreted Aβ 40 and Aβ 42 levels
- γ-secretase activity in hippocampus [7]: significantly enhanced; also recorded: enhanced γ-secretase activity

Compound: CC(C)C[C@@H](NC(=O)[C@H](Cc1ccccc1)NC(=O)CNC(=O)[C@@H](C)NC(=O)[C@@H](N)Cc1ccc(O)cc1)C(=O)O [DADLE, [D-Ala^2, D-Leu^5]-enkephalin]
- γ-secretase activity [9]: enhanced γ-secretase activity
- γ-secretase activity ([10]; SH-SY5Y neuroblastoma, 1 μM DADLE, 30 minutes): enhanced γ-secretase activity
- γ-secretase activity in the AP positive fraction ([10]; SH-SY5Y, 1 μM DADLE 30 minutes, then fractionated): enhanced the γ-secretase activity in the AP positive fraction

Compound: pertussis toxin [PTX]
- effect on DADLE-induced enhancement of γ-secretase activity ([10]; SH-SY5Y, 1 μM DADLE after 12 hours pre-treatment with 200 ng/ml PTX): not abolished; also recorded: did not alter the enhancement of γ-secretase activity

Compound: transferrin
- γ-secretase activity [11]: does not lead to enhanced γ-secretase activity; also recorded: failed to enhance γ-secretase activity

Compound: CC(C)(C)NCC(O)COc1cccc2c1CC(O)C(O)C2 (centres unmarked) [nadolol]
- percent time spent in the platform quadrant, probe trial [1]: had no effect
- escape latency, visible platform training [1]: No genotype or drug effect
- escape latency, hidden platform training [1]: showed no effect
- escape latency, hidden platform training ([1]; listed as Nadolol): showed no effect on the impairment

Compound: COCCc1ccc(OCC(O)CNC(C)C)cc1 (centres unmarked) [Metoprolol]
- percent time spent in the platform quadrant, probe trial [1]: showed no effect
- percent time spent in the platform quadrant, probe trial ([1]; listed as metoprolol): had no effect
- escape latency, visible platform training [1]: no drug effect was observed
- escape latency, hidden platform training [1]: showed no effect

Compound: concanavalin A [Con A]
- effect on Iso-induced enhancement of γ-secretase activity ([5]; C6 glioma, 10 μM Iso 30 min after pretreatment with 0.25 mg/ml Con A or 0.5 M Suc): abolished

Compound: Oc1ccc2c3c1O[C@H]1c4[nH]c5ccccc5c4C[C@@]4(O)[C@@H](C2)N(CC2CC2)CC[C@]314 [naltrindole]
- escape latency, visible platform training [1]: no drug effect was observed
- escape latency, hidden platform training [1]: ameliorated cognitive impairment
- crossing of the blood-brain barrier (BBB) [2]: can cross the BBB
- effect on DADLE-induced Aβ production [12]: abolished the effect of DADLE

Compound: CC(C)NCC(O)COc1cccc2ccccc12 (centres unmarked) [propranolol]
- percent time spent in the platform quadrant, probe trial [1]: partially ameliorated the impairment of spatial memory
- swim speed as cause of the observed effects [1]: did not result from difference in swim speeds
- escape latency, visible platform training [1]: No genotype or drug effect
- escape latency, hidden platform training [1]: partially ameliorate the impairment

Compound: CC(C)NCC(O)c1ccc(O)c(O)c1 (centres unmarked) [Iso, isoproterenol]
- γ-secretase activity, compound alone [5]: γ-secretase activity was enhanced
- cerebral amyloid plaques [3]: increased cerebral amyloid plaques; also recorded: accelerated amyloid plaque formation
- secreted Aβ [13]: increases Aβ production
- co-localization of PS1 or nicastrin with LAMP-1 [14]: increased
- Iso-induced enhancement of γ-secretase activity [15]: Presenilin-deficiency abolished the Iso-induced enhancement
